Several values for one entry are separate records, joined by “and”; a condition that tells them apart may be missing. Identical values can stand only once.
What was measured:
Recombinant LOXL-1 = target: T1, Recombinant LOXL-1 (Homo sapiens, UniProt Q08397); test: Lysyl oxidase enzymatic activity, fluorescence-based assay, IC50; assay type: biochemical
T1 sequence (Q08397 96-574): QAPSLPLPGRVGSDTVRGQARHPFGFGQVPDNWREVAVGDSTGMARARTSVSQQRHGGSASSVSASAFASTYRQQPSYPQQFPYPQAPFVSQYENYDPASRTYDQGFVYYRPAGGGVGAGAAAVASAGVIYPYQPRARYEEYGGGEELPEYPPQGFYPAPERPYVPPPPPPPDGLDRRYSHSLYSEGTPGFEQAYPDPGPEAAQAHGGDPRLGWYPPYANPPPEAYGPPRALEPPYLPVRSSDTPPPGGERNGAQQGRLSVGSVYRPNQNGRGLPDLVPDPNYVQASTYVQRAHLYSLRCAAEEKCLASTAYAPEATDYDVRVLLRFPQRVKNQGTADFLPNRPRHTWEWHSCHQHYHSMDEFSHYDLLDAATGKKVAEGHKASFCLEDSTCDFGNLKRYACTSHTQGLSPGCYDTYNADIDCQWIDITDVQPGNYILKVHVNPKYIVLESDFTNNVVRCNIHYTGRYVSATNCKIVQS
From the text: Data are presented as mean ± s.d. […] Data presented as mean ± s.d. […] Source data TEXT PRINTED IN THE PICTURE: (b) PXS-5505: Recombinant DAO IC50 (nM): >30,000; Recombinant SSAO/VAP1 IC50 (nM): >30,000; Recombinant MAO-A IC50 (nM): >30,000; Recombinant MAO-B IC50 (nM): >30,000 | (f) PXS-5505: Fibroblast LOX IC50 (nM): 4,930; Recombinant LOXL-1 IC50 (nM): 1,590; Recombinant LOXL-2 IC50 (nM): 570; Recombinant LOXL-3 IC50 (nM): 1,800; Recombinant LOXL-4 IC50 (nM): 190
In characterizing PXS-5505, the half-maximum inhibitory concentration (IC50) values for each of the lysyl oxidase family members were determined by measuring enzymatic activity using a fluorescence-based assay. […]

[1] = 2D cell viability assay (MTS); assay type: cell-based, mouse; conditions: mouse, replicates
Procedure: (§1) The 2D cell viability assays were performed using KPC CAFs and CCs seeded at (250 CAFs per well) and (500 CCs per well) in a 96-well plate. MTS solution (Promega) was added to the cells at a 1:20 dilution and cells were incubated at 37 °C for 2 h. Cell proliferation rates were measured by detecting the absorbance at 490 nm using a microplate reader. Three biological repeats were performed.
(§2) Data presented as mean values +/− SD. f. […] Data presented as mean values +/− SD. […] Data presented as mean values +/− SD. […] Data presented as mean values +/− SD. Ordinary one-way ANOVA for multiple comparison test performed. Source data

KPC CAFs = test: 2D cell viability assay (MTS); assay type: cell-based, mouse; conditions: for 2D cell viability (MTS assay): CAFs, replicates
Procedure: as §1, §2

KPC CCs = test: 2D cell viability assay (MTS); assay type: cell-based, mouse; conditions: for 2D cell viability (MTS assay): Cancer cells, replicates
Procedure: as §1, §2

For `Cl.Cl.NC/C=C(\F)CS(=O)(=O)c1cccc2cccnc12.O` [PXS-5505, (Z)-3-fluoro-4-(quinolin-8-ylsulfonyl)but-2-en-1-amine dihydrochloride monohydrate], the IC50 (Recombinant LOXL-1) was 1590 nM, the “LOXL1 activity, IC50 determination curve” value (Recombinant LOXL-1; log(Concentration) -4.52288, replicates, 30 µM) was -0.3767 and 0.3431 and 4.322 and the “LOXL1 activity, IC50 determination curve” value (Recombinant LOXL-1; log(Concentration) -5, replicates, 10 µM) was 5.837. For the same molecule, the “LOXL1 activity, IC50 determination curve” value (Recombinant LOXL-1; log(Concentration) -5.47712, replicates, 3.333 µM) was 31.2503 and 31.9336, the “LOXL1 activity, IC50 determination curve” value (Recombinant LOXL-1; log(Concentration) -5.95424, replicates, 1.111 µM) was 60.6166 and 67.4565 and the “LOXL1 activity, IC50 determination curve” value (Recombinant LOXL-1; log(Concentration) -6.43136, replicates, 0.3704 µM) was 85.3221 and 90.5851. For the same molecule, the “LOXL1 activity, IC50 determination curve” value (Recombinant LOXL-1; log(Concentration) -6.90849, replicates, 0.1235 µM) was 93.09 and 98.6783, the “LOXL1 activity, IC50 determination curve” value (Recombinant LOXL-1; log(Concentration) -7.38561, replicates, 0.04115 µM) was 99.6453 and 102.919 and the “LOXL1 activity, IC50 determination curve” value (Recombinant LOXL-1; log(Concentration) -7.86273, replicates, 0.01372 µM) was 100.176 and 100.944. The “LOXL1 activity, IC50 determination curve” value (Recombinant LOXL-1; log(Concentration) -8.33985, replicates, 0.004572 µM) was 101.83 and 104.276, the “LOXL1 activity, IC50 determination curve” value (Recombinant LOXL-1; log(Concentration) -8.81697, replicates, 0.001524 µM) was 107.666 and 104.748 and the “LOXL1 activity, IC50 determination curve” value (Recombinant LOXL-1; log(Concentration) -9.29409, replicates, 0.000508 µM) was 100.744 and 106.953. For the same molecule, the activity at 10 µM (Recombinant LOXL-1; read-out: LOXL1 activity, IC50 determination curve, log(Concentration) -5, replicates) was 4.51%, the activity at 3.333 µM (Recombinant LOXL-1; read-out: LOXL1 activity, IC50 determination curve, log(Concentration) -5.47712, replicates) was 20.9% and the activity at 1.111 µM (Recombinant LOXL-1; read-out: LOXL1 activity, IC50 determination curve, log(Concentration) -5.95424, replicates) was 63.8%. For the same molecule, the activity at 0.3704 µM (Recombinant LOXL-1; read-out: LOXL1 activity, IC50 determination curve, log(Concentration) -6.43136, replicates) was 85%, the activity at 0.1235 µM (Recombinant LOXL-1; read-out: LOXL1 activity, IC50 determination curve, log(Concentration) -6.90849, replicates) was 94.6% and the activity at 0.04115 µM (Recombinant LOXL-1; read-out: LOXL1 activity, IC50 determination curve, log(Concentration) -7.38561, replicates) was 99.8%. The activity at 0.01372 µM (Recombinant LOXL-1; read-out: LOXL1 activity, IC50 determination curve, log(Concentration) -7.86273, replicates) was 100%, the activity at 0.004572 µM (Recombinant LOXL-1; read-out: LOXL1 activity, IC50 determination curve, log(Concentration) -8.33985, replicates) was 101% and the activity at 0.001524 µM (Recombinant LOXL-1; read-out: LOXL1 activity, IC50 determination curve, log(Concentration) -8.81697, replicates) was 101%. For the same molecule, the activity at 0.000508 µM (Recombinant LOXL-1; read-out: LOXL1 activity, IC50 determination curve, log(Concentration) -9.29409, replicates) was 102%, the viability ([1]; KPC CAFs (2D culture), CAFs, PXS-5505 0.3 (unit inferred)) was 100% and the viability ([1]; KPC CAFs (2D culture), CAFs, PXS-5505 3 (unit inferred)) was 94.8%. The viability ([1]; KPC CAFs (2D culture), CAFs, PXS-5505 30 (unit inferred)) was 101%, the viability ([1]; KPC CAFs (2D culture), CAFs, PXS-5505 100 (unit inferred)) was 89.7% and the viability ([1]; KPC CAFs (2D culture), CAFs, PXS-5505 300 (unit inferred)) was 92.6%. The viability ([1]; KPC cancer cells (CCs, 2D culture), Cancer cells, PXS-5505 0.3 (unit inferred)) was 100%, the viability ([1]; KPC cancer cells (CCs, 2D culture), Cancer cells, PXS-5505 3 (unit inferred)) was 109% and the viability ([1]; KPC cancer cells (CCs, 2D culture), Cancer cells, PXS-5505 30 (unit inferred)) was 110%. For the same molecule, the viability ([1]; KPC cancer cells (CCs, 2D culture), Cancer cells, PXS-5505 100 (unit inferred)) was 102%, the viability ([1]; KPC cancer cells (CCs, 2D culture), Cancer cells, PXS-5505 300 (unit inferred)) was 98.8% and the “2D cell viability (MTS assay)” value (KPC CAFs; PXS-5505 0.3 (unit not given)) was 89.24 and 85.85. The “2D cell viability (MTS assay)” value (KPC CAFs; PXS-5505 3 (unit not given)) was 104.51 and 107.51, the “2D cell viability (MTS assay)” value (KPC CAFs; PXS-5505 30 (unit not given)) was 111.18 and 108.48 and the “2D cell viability (MTS assay)” value (KPC CAFs; PXS-5505 100 (unit not given)) was 94.55 and 103.25. The “2D cell viability (MTS assay)” value (KPC CAFs; PXS-5505 300 (unit not given)) was 90.49 and 84.11, the “effect on proliferation, 2D” value (KPC CAFs; KPC CAFs, up to 300 µM) was “nor did it show any effect on proliferation” and the “2D cell viability (MTS assay)” value (KPC CCs; PXS-5505 0.3 (unit not given)) was 100 and 109.75. The “2D cell viability (MTS assay)” value (KPC CCs; PXS-5505 3 (unit not given)) was 110.09 and 116.21, the “2D cell viability (MTS assay)” value (KPC CCs; PXS-5505 30 (unit not given)) was 104.54 and 100.45 and the “2D cell viability (MTS assay)” value (KPC CCs; PXS-5505 100 (unit not given)) was 94.9 and 85.15. For the same molecule, the “2D cell viability (MTS assay)” value (KPC CCs; PXS-5505 300 (unit not given)) was 94.9 and 96.71 and the “effect on proliferation, 2D” value (KPC CCs; KPC CCs, up to 300 µM) was “nor did it show any effect on proliferation”.

Source: PMC10518255, “A first-in-class pan-lysyl oxidase inhibitor impairs stromal remodeling and enhances gemcitabine response and survival in pancreatic cancer” (Nature Cancer, 2023)
